This passage reports IC50 results from patent US9216991B2 (Ares Trading S.A., priority 2012, dated 2015).

Structures can show the parent of a compound that is named as a salt. Some results are limits rather than exact numbers.

This assay concerns the target T1, IRAK4 (Homo sapiens, UniProt Q9NWZ3).
T1 construct: His (N); TEV cleavage site (N)
T1 sequence (Q9NWZ3 1-460): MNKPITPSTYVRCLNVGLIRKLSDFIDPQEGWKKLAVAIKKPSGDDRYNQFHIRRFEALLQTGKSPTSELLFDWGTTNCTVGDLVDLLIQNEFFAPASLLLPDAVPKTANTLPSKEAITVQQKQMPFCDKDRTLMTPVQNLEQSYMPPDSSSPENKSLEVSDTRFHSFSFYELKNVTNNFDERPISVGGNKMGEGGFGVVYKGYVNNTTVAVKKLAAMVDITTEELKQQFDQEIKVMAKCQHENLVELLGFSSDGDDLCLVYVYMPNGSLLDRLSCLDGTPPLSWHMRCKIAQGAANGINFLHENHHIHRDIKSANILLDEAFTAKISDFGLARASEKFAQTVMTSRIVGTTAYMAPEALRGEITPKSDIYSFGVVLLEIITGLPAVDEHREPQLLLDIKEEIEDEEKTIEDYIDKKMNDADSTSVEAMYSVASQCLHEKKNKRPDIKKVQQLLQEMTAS
As to the kind of experiment: IRAK4 Enzymatic Assay. Format: biochemical. Particulars: His-TEV-IRAK4 20 ng/well, ATP 2 μM, STK1-biotin peptide 300 nM, 3 hours at 30° C., FlashPlate radioactivity. The procedure: IRAK4 is a human purified recombinant enzyme (His-TEV-IRAK1 (194-712)
IRAK4 hydrolyses ATP, autophosphorylates and phosphorylates a Serine/Threonine generic peptidic substrate (STK: 61ST1BLC from CisBio International based in Bagnols/Cèze FR).
Measurement of IRAK-4 inhibition is performed in streptavidin coated 384 well FlashPlate (PerkinElmer #SMP410A). His-TEV-IRAK4 (20 ng/well), ATP (2 μM, [^33P]ATP 0.25 μCi/well), STK1-biotin peptide (300 nM) and compounds in DMSO (range of concentrations from 20 μM to 1nM) or controls (2% DMSO) are incubated for 3 hours at 30° C. in assay buffer: Hepes pH7.0 50 mM, Fatty acid-free BSA 0.1%, Dithiothreitol DTT 2 mM, MgCl2 10 mM, EGTA 0.5 mM, Tween-20 0.01%, MnCl2 5 mM.
Kinase reaction is stopped by addition of EDTA. Supernatant is discarded, plates are washed three times with 150 mM NaCl and radioactivity is then measured in a Microbeta Trilux reader.
A word on the IC50: it is the concentration needed to halve the response being measured. For `Cc1cc(-c2cccc(-c3ncc(-c4cnn([C@H]5CC[C@H](C(=O)N(C)C)CC5)c4)cn3)c2)ccn1` [Example 229, Trans-4-(4-{2-[3-(2-Methyl-pyridin-4-yl)-phenyl]-pyrimidin-5-yl}-pyrazol-1-yl)-cyclohexanecarboxylic acid dimethylamide], the IC50 was in the range of 100 to 1000 nM.
To `CC(C(=O)N1CCOCC1)n1cc(-c2cnc(-c3cccc(-c4cnn(C)c4)c3)nc2)cn1` (stereo not drawn) [Example 103, 2-(4-{2-[3-(1-Methyl-1H-pyrazol-4-yl)-phenyl]-pyrimidin-5-yl}-pyrazol-1-yl)-1-morpholin-4-yl-propan-1-one] belongs 1000 to 5000 nM.
`Cn1cc(-c2cccc(-c3ncc(-c4cnn(CC(F)F)c4)cn3)c2)cn1` [Example 67, 5-[1-(2,2-Difluoro-ethyl)-1H-pyrazol-4-yl]-2-[3-(1-methyl-1H-pyrazol-4-yl)-phenyl]-pyrimidine]: the IC50 is 100 to 1000 nM.
With `Cn1cc(-c2cccc(-c3ncc(-c4cnn(C5CCN(C(=O)C(F)(F)F)CC5)c4)cn3)c2)cn1` [Example 4, 2,2,2-Trifluoro-1-[4-(4-{2-[3-(1-methyl-1H-pyrazol-4-yl)-phenyl]-pyrimidin-5-yl}-pyrazol-1-yl)-piperidin-1-yl]-ethanone], the IC50 is 100 to 1000 nM.
The same measure for `Cn1cc(-c2cccc(-c3ncc(-c4cnn([C@@H]5CCNC[C@@H]5F)c4)cn3)c2)cn1` (relative stereo) [Example 265]: 100 to 1000 nM; for `Cn1cc(-c2cccc(-c3ncc(-c4cnn(C5CCCOC5)c4)cn3)c2)cn1` (stereo not drawn) [Example 221, 2-[3-(1-Methyl-1H-pyrazol-4-yl)-phenyl]-5-[1-(tetrahydro-pyran-3-yl)-1H-pyrazol-4-yl]-pyrimidine]: 100 to 1000 nM.
The same measure for `Cn1cc(-c2cccc(-c3ncc(-c4cnn(C5CCN(S(C)(=O)=O)CC5)c4)cn3)c2)cn1` [Example 76, 5-[1-(1-Methanesulfonyl-piperidin-4-yl)-1H-pyrazol-4-yl]-2-[3-(1-methyl-1H-pyrazol-4-yl)-phenyl]-pyrimidine]: 100 to 1000 nM; for `Cn1cc(-c2cccc(-c3ncc(-c4cnn(C5CCNCC5)c4)cn3)c2F)cn1` [Example 48, 2-[2-Fluoro-3-(1-methyl-1H-pyrazol-4-yl)-phenyl]-5-(1-piperidin-4-yl-1H-pyrazol-4-yl)-pyrimidine Formate]: 1000 to 5000 nM; for `Cn1cc(-c2cccc(-c3ncc(-c4cnn(CC(O)c5ccccn5)c4)cn3)c2)cn1` (stereo not drawn) [Example 215, 2-(4-{2-[3-(1-Methyl-1H-pyrazol-4-yl)-phenyl]-pyrimidin-5-yl}-pyrazol-1-yl)-1-pyridin-2-yl-ethanol]: 100 to 1000 nM.
As to `Cn1cc(-c2cccc(-c3ncc(-c4cnn(CC(=O)N5CC6CCC(C5)O6)c4)cn3)c2)cn1` [Example 94, 2-(4-{2-[3-(1-Methyl-1H-pyrazol-4-yl)-phenyl]-pyrimidin-5-yl}-pyrazol-1-yl)-1-(8-oxa-3-aza-bicyclo[3.2.1]oct-3-yl)-ethanone], the IC50 was in the range of 100 to 1000 nM.
With `CN(C)C(=O)C(C)(C)n1cc(-c2cnc(-c3cccc(-c4cnn(C)c4)c3)nc2)cn1` [Example 149, N,N-Dimethyl-2-(4-{2-[3-(1-methyl-1H-pyrazol-4-yl)-phenyl]-pyrimidin-5-yl}-pyrazol-1-yl)-isobutyramide], the IC50 was 100 to 1000 nM.
As for `Cn1cc(-c2cccc(-c3ncc(-c4cnn(CC(=O)N5C[C@@H]6C[C@H]5CO6)c4)cn3)c2)cn1` [Example 92, 2-(4-{2-[3-(1-Methyl-1H-pyrazol-4-yl)-phenyl]-pyrimidin-5-yl}-pyrazol-1-yl)-1-(1S,4S)-2-oxa-5-aza-bicyclo[2.2.1]hept-5-yl-ethanone], the IC50 was in the range of 100 to 1000 nM.
For `Cn1cc(-c2cccc(-c3ncc(-c4cnn(C5CCC[C@@H](S(C)(=O)=O)C5)c4)cn3)c2)cn1` (single isomer, unassigned) [Example 282, 5-[1-(trans-3-Methanesulfonyl-cyclohexyl)-1H-pyrazol-4-yl]-2-[3-(1-methyl-1H-pyrazol-4-yl)-phenyl]-pyrimidine], the IC50 was in the range of 100 to 1000 nM.
The same measure for `Cn1cc(-c2cccc(-c3ncc(-c4cnn([C@H]5CCNC5)c4)cn3)c2)cn1` [Example 125, 2-[3-(1-Methyl-1H-pyrazol-4-yl)-phenyl]-5-((S)-1-pyrrolidin-3-yl-1H-pyrazol-4-yl)-pyrimidine]: 100 to 1000 nM; for `Cn1cc(-c2cccc(-c3ncc(-c4cnn([C@H]5CC[C@@H](O)CC5)c4)cn3)c2)cn1` [Example 196, Cis-4-(4-{2-[3-(1-Methyl-1H-pyrazol-4-yl)-phenyl]-pyrimidin-5-yl}-pyrazol-1-yl)-cyclohexanol]: 100 to 1000 nM; for `Cn1cc(-c2cccc(-c3ncc(-c4cnn(C5CCN(c6ccccc6F)CC5)c4)cn3)c2)cn1` [Example 175, 5-{1-[1-(2-Fluoro-phenyl)-piperidin-4-yl]-1H-pyrazol-4-yl}-2-[3-(1-methyl-1H-pyrazol-4-yl)-phenyl]-pyrimidine]: 100 to 1000 nM.
In the case of `Cc1cc(-c2cccc(-c3ncc(-c4cnn([C@H]5CC[C@H](C(=O)N(C)C)CC5)c4)cn3)c2)cnn1` [Example 187, trans-4-(4-{2-[3-(6-Methyl-pyridazin-4-yl)-phenyl]-pyrimidin-5-yl}-pyrazol-1-yl)-cyclohexanecarboxylic acid dimethylamide], the concentration for half-maximal inhibition (IC50) is < 100 nM.
Regarding `Cn1cc(-c2cccc(-c3ncc(-c4cnn(CC(=O)N5C6CCC5CC(O)C6)c4)cn3)c2)cn1` (stereo not drawn) [Example 127, 1-(3-Hydroxy-8-aza-bicyclo[3.2.1]oct-8-yl)-2-(4-{2-[3-(1-methyl-1H-pyrazol-4-yl)-phenyl]-pyrimidin-5-yl}-pyrazol-1-yl)-ethanone], the IC50 lay within 100 to 1000 nM.
For `Cn1cc(-c2cccc(-c3ncc(-c4cnn(CC(=O)N5CCCC5)c4)cn3)c2)cn1` [Example 9, 2-(4-{2-[3-(1-Methyl-1H-pyrazol-4-yl)-phenyl]-pyrimidin-5-yl}-pyrazol-1-yl)-1-pyrrolidin-1-yl-ethanone], the 50% inhibitory concentration (IC50) fell in the range of 100 to 1000 nM.
The same measure for `Cn1cc(-c2cccc(-c3ncc(-c4cnn(C(C)(C)C(=O)N5CCOCC5)c4)cn3)c2)cn1` [Example 150, 2-Methyl-2-(4-{2-[3-(1-methyl-1H-pyrazol-4-yl)-phenyl]-pyrimidin-5-yl}-pyrazol-1-yl)-1-morpholin-4-yl-propan-1-one]: 1000 to 5000 nM.
Turning to `Cn1cc(-c2cccc(-c3ncc(-c4cnn(CCC5CCOCC5)c4)cn3)c2)cn1` [Example 69, 2-[3-(1-Methyl-1H-pyrazol-4-yl)-phenyl]-5-{1-[2-(tetrahydro-pyran-4-yl)-ethyl]-1H-pyrazol-4-yl}-pyrimidine], the 50% inhibitory concentration (IC50) was in the range of 100 to 1000 nM.
The same measure for `CN(C)C(=O)[C@H]1CC[C@H](n2cc(-c3cnc(-c4cccc(-c5ccc(Cl)nn5)c4)nc3)cn2)CC1` [Example 234, Trans-4-(4-{2-[3-(6-Chloro-pyridazin-3-yl)-phenyl]-pyrimidin-5-yl}-pyrazol-1-yl)-cyclohexanecarboxylic acid dimethylamide]: 1000 to 5000 nM; for `O=C(Cn1cc(-c2cnc(-c3cccc(-c4cnn(CCO)c4)c3)nc2)cn1)N1CCCC1` [Example 59, 2-[4-(2-{3-[1-(2-Hydroxy-ethyl)-1H-pyrazol-4-yl]-phenyl}-pyrimidin-5-yl)-pyrazol-1-yl]-1-pyrrolidin-1-yl-ethanone]: 1000 to 5000 nM.
For `CNC(=O)c1nn(C)cc1-c1cnc(-c2cccc(-c3cnn(C)c3)c2)nc1` [Example 144, 1-Methyl-4-{2-[3-(1-methyl-1H-pyrazol-4-yl)-phenyl]-pyrimidin-5-yl}-1H-pyrazole-3-carboxylic acid methylamide], the IC50 lay in the range of 1000 to 5000 nM.
With `CC(=O)N1CCC(n2cc(-c3cnc(-c4cccc(-c5cnn(C)c5)c4)nc3)cn2)C(F)C1` (stereo not drawn) [Example 263, Cis-1-[3-Fluoro-4-(4-{2-[3-(1-methyl-1H-pyrazol-4-yl)-phenyl]-pyrimidin-5-yl}-pyrazol-1-yl)-piperidin-1-yl]-ethanone], the IC50 was < 100 nM.
For the compound `Cn1cc(-c2cccc(-c3ncc(-c4cnn(C5CCN([C@H]6CCOC[C@H]6F)CC5)c4)cn3)c2)cn1` [Example 167, 5-{1-[1-((3S,4S)-3-Fluoro-tetrahydro-pyran-4-yl)-piperidin-4-yl]-1H-pyrazol-4-yl}-2-[3-(1-methyl-1H-pyrazol-4-yl)-phenyl]-pyrimidine], the IC50 lay within 100 to 1000 nM.
To `CN(C(=O)Cn1cc(-c2cnc(-c3cccc(-c4cnn(C)c4)c3)nc2)cn1)C1CCOCC1` [Example 91, N-Methyl-2-(4-{2-[3-(1-methyl-1H-pyrazol-4-yl)-phenyl]-pyrimidin-5-yl}-pyrazol-1-yl)-N-(tetrahydro-pyran-4-yl)-acetamide] belongs 100 to 1000 nM.
